From patent publication US7569208B2, “Diagnostic agents for pancreatic exocrine function” (Tokyo Gas Company Limited, priority 1999, dated 2009)
Blank lines part the entries; values can stand above or below the compound they belong to.

Key:
[1] = Solubility / precipitation of phenylalanine in distilled water with or without hydroxypropyl-β-cyclodextrin; assay type: physicochemical; conditions: 299 mg of [1-^13C]-phenylalanine in 5 ml distilled water, dissolved at 85° C., cooled to 25° C.
Text: The increase of solubility of phenylalanine in the presence of hydroxypropyl-β-cyclodextrin confirmed the formation of (1-^13C]-phenylalanine/hydroxypropyl-β-cyclodextrin inclusion complex.

[2] = at 25° C.; cited from earlier work
[3] = tested on: pancreatic exocrine function; assay: 13C breath test after oral administration in olive oil to chronic pancreatitis and control rats (GC-MS); assay type: in vivo, rat
Experimental: A ^13C-FDL breath test was carried out wherein ^13C-FDL was orally administered to chronic pancreatitis and control rats and the time course of the ^13C concentration in the exhaled CO2 after the administration was measured.
(§1) According to Mundlos et al. (Mundlos et al., Pancreas, 1:29 (1986)), the chronic pancreatitis rats were prepared by injecting oleic acid into the pancreatic duct of Wistar male rats of 5 weeks old and kept for 3 weeks. Rats in which midline incision was made on the abdomen were used as the control.
The chronic pancreatitis and control rats of 8 weeks old, which fasted overnight, were fixed without anesthesia in a rat holder for a microwave irradiation apparatus. The breath was collected at a rate of about 100 to 300 ml/min using a CO2 meter (CAPSTER-100) to monitor the CO2 concentration. […]
The breath was taken out as a sample immediately before the administration and at every hour for 5 hours after the administration and the ^13C concentration in the exhaled CO2 was analyzed by a gas chromatography-mass spectrometer (GC-MS). The analytic conditions for GC-MS are as follows. The CO2 concentration in the collected breath was held at 3±0.5%. GC-MS conditions:
Assuming that the isotopic abundance of oxygen is the same as that which is naturally occurring, ^13C concentration was calculated from the peak areas of the ions m/z=45 and 46 according to the following equation: […]
Δ^13C (‰) was calculated from the ^13C concentration in the exhaled CO2 at each time point (^13C tmin) and the ^13C concentration in standard CO2 (^13C std) according to the following equation: Δ^13C (‰)=[(^13C tmin−^13C 0 min)/^13C std]×1000 12.2 Results

[4] = tested on: pancreatic exocrine function; assay: 13C breath test after oral administration to oleic acid-induced chronic pancreatitis and control rats (13CO2 analyzer); assay type: in vivo, rat; conditions: for Δ^13C (‰) value in exhaled CO2: 75 mg/kg oral, at 10 minutes
Experimental: ^13C-labeled cyclodextrin breath test was carried out wherein ^13C-labeled cyclodextrin prepared in Example 1 was orally administered to chronic pancreatitis and control rats and the time course of the ^13C concentration in the exhaled CO2 after the administration was measured.
as §1
The chronic pancreatitis and control rats of 8 weeks old, which fasted overnight, were fixed without anesthesia in a rat holder for a microwave irradiation apparatus. The breath was collected at a rate of about 100 to 300 ml/min using a stroke pump (Variable Stroke Pump VS-500, Shibata Kagaku Kogyo) and introduced directly to a flow cell of a ^13CO2 analyzer EX-130S (Nihon Bunko) to measure ^13C atom % and the carbon dioxide gas concentration continuously. A Perma Pure drier (MD-050-12P, Perma Pure Inc.) was set between the rat holder and the stroke pump to remove out water vapor in the breath. After the CO2 concentration was stabilized, the rat was once removed out of the rat holder and an aqueous solution of ^13C-labeled cyclodextrin was administered (75 mg/kg, 5 ml/kg) into the stomach using an oral sonde.
Δ^13C (‰) was calculated from the ^13C concentration in the exhaled CO2 at each time point (^13C tmin) and the ^13C concentration in standard CO2 (^13C std) according to the following equation: Δ^13C (‰)=[(^13C tmin−^13C 0 min)/^13C std]×1000

precipitation of phenylalanine when the solution was allowed to cool to 25° C. [1]: phenylalanine was precipitated
Compound: N[C@@H](C[13c]1ccccc1)C(=O)O [(1-^13C]-phenylalanine, [1-^13C]-phenylalanine]

Compound: N[C@@H](Cc1ccccc1)C(=O)O [phenylalanine]
solubility [2]: 148 mg/5 ml

Compound: ^13C-dilaurylfluorescein [^13C-FDL]
Δ^13C (‰) values of chronic pancreatitis rats compared with control rats ([3]; 160 mg/kg oral in olive oil, at each time point for 5 hours (FIG. 10)): smaller than the control rats | Δ^13C (‰) value in exhaled CO2 ([3]; chronic pancreatitis rats, 160 mg/kg oral in olive oil, at 3 hours): 42.0±21.3 ‰ | Δ^13C (‰) value in exhaled CO2 ([3]; chronic pancreatitis rats, 160 mg/kg oral in olive oil, at 5 hours): 95.4±47.1 ‰ | Δ^13C (‰) value in exhaled CO2 ([3]; control rats, 160 mg/kg oral in olive oil, at 3 hours): 153.3±22.8 ‰ | Δ^13C (‰) value in exhaled CO2 ([3]; control rats, 160 mg/kg oral in olive oil, at 5 hours): 236.3±12.4 ‰

Compound: ^13C-dioctanoylfluorescein [^13C-FDO]
Δ^13C (‰) values of chronic pancreatitis rats compared with control rats ([3]; 200 mg/kg oral in olive oil, at each time point for 5 hours (FIG. 11)): smaller than the control rats | Δ^13C (‰) value in exhaled CO2 ([3]; chronic pancreatitis rats, 200 mg/kg oral in olive oil, at 1 hour): 2.7±3.8 ‰ | Δ^13C (‰) value in exhaled CO2 ([3]; chronic pancreatitis rats, 200 mg/kg oral in olive oil, at 3 hours): 18.4±12.1 ‰ | Δ^13C (‰) value in exhaled CO2 ([3]; chronic pancreatitis rats, 200 mg/kg oral in olive oil, at 4 hours): 15.2±13.4 ‰ | Δ^13C (‰) value in exhaled CO2 ([3]; chronic pancreatitis rats, 200 mg/kg oral in olive oil, at 5 hours): 20.6±11.2 ‰ | Δ^13C (‰) value in exhaled CO2 ([3]; control rats, 200 mg/kg oral in olive oil, at 1 hour): 46.3±11.5 ‰ | Δ^13C (‰) value in exhaled CO2 ([3]; control rats, 200 mg/kg oral in olive oil, at 3 hours): 60.6±12.7 ‰ | Δ^13C (‰) value in exhaled CO2 ([3]; control rats, 200 mg/kg oral in olive oil, at 4 hours): 88.7±8.2 ‰ | Δ^13C (‰) value in exhaled CO2 ([3]; control rats, 200 mg/kg oral in olive oil, at 5 hours): 73.6±14.1 ‰

Compound: galactosyl ^13C-maltohexaose [galactosyl ^13C-labeled maltohexaose]
Δ^13C (‰) value in exhaled CO2 ([4]; chronic pancreatitis rats): 18.9 ± 17 ‰ | Δ^13C (‰) value in exhaled CO2 ([4]; control rats): 95.6 ± 42.4 ‰ | increase in Δ^13C (‰) value of chronic pancreatitis rats compared with control rats ([4]; galactosyl ^13C-maltohexaose 75 mg/kg oral, for 30 minutes (FIG. 4)): smaller than the control rats
